Measured values published in US9603980B2, “Layer-by-layer stereocomplexed polymers as drug depot carriers or coatings in medical devices” (Cardinal Health Switzerland 515 GmbH, priority 2008, dated 2017).

Key:
[1] = tested on: cell viability; test: Cell viability assay; type: cell-based
Text: (§1) The multiple curves represent various concentrations of topotecan ranging from zero to three hundred nanomolar concentrations.
(§2) The multiple curves represent various concentrations of etoposide ranging from zero to eight hundred nanomolar concentrations.

[2] = tested on: human coronary artery smooth muscle cells; test: Anti-proliferative activity in synchronized cultured cells stimulated with two percent fetal bovine serum; type: cell-based
Text: as §1, §2
The multiple curves represent various concentrations of Panzem® ranging from zero to 100 micromolar concentrations.

[3] = Drug concentration in liquid formulations (liquid chromatography / HPLC assay); type: physicochemical
Text: In accordance with exemplary embodiments of the present invention, a series of liquid formulations were developed for the local or regional delivery of water insoluble compounds such as sirolimus and its analogs, including CCI-779, ABT-578 and everolimus, through weeping balloons and catheter injection needles. […] These liquid formulations increase the apparent solubility of the pharmacologically active but water insoluble compounds by two to four orders of magnitude as compared to the solubility limits of the compounds in water. These liquid formulations rely on the use of a very small amount of organic solvents such as Ethanol (typically less than two percent) and a larger amount of safe amphiphilic (of or relating to a molecule having a polar, water soluble group attached to a non-polar, water insoluble […]) excipients such as polyethylene glycol (PEG 200, PEG 400) and vitamin E TPGS to enhance the solubility of the compounds. These liquid formulations of highly water insoluble compounds are stable and readily flowable at room temperature. Certain excipients, such as Vitamin E TPGS and BHT may be utilized to enhance the storage stability of sirolimus compounds through their anti-oxidation properties. […]

[4] = Porcine drug elution PK study of dual drug eluting coating; type: in vivo; conditions: after eight (8) days of implantation, single-layer coating of FIG. 83
Text: Another critical parameter for the performance of the thrombus resistance of a device coated with cilostazol is the duration of the drug release from the coating. This is of particular significance in the two weeks after device implantation. In the porcine drug elution PK studies of the dual drug eluting coating, both cilostazol and sirolius were slowly released from the coating, resulting in a sustained drug release profile. The purpose of the porcine PK study is to assess the local pharmacokinetics of a drug eluting stent at a given implantation time. Normally three stents are implanted in three different coronary arteries in a pig for a given time point and then retrieved for total drug recovery analysis. The stents are retrieved at predetermined time points; namely, 1, 3 and 8 days. The stents are extracted and the total amount of drug remaining on the stents is determined by analysis utilizing HPLC (high performance liquid chromatography) for total drug amount. The difference between the original amount of drug on the stent and the amount of drug retrieved at a given time represents the amount of drug released in that period. The continuous release of drug into surrounding arterial tissue is what prevents the neointimal growth and restenosis in the coronary artery. A normal plot represents the percentage of total drug released (%, y-axis) vs. time of implantation (day, x-axis). […]

[5] = In vivo release kinetics from stent coatings, porcine pharmacokinetics studies
Text: The topcoat is two hundred micro grams.
(§3) The basecoat is applied to Bx Velocity® stents and implanted into Yorkshire pigs.
as §3

[6] = In vitro release of sirolimus and cilostazol from single-layer coating; type: physicochemical; conditions: single-layer coating of FIG. 83
[7] = tested on: human coronary artery smooth muscle cells; test: Antiproliferative effects of PX867 on cultured cells; type: cell-based
Text: A PI3 kinase inhibitor can affect restinosis when administered by local or systemic delivery alone or in combination with sirolimus. FIGS. 87 and 88 illustrate the antiproliferative effects of PX867 on cultured human coronary artery smooth muscle cells alone (FIG. 87) or in combination with sirolimus (FIG. 88). […] Curve 8702 illustrates the percent inhibition for various concentrations. In FIG. 88, the six curves 8802, 8804, 8806, 8808, 8810 and 8812 represent various concentrations of PX867 with various concentrations of sirolimus. […] More specifically, curve 8812 illustrates the percent inhibition for a 240 nM PX-867 concentration. […] This may be compared to curve 8804 which represents a 15 nM PX-867 concentration. As one can see, the percent inhibition increases as the concentration of sirolimus increases. Accordingly, a potent PI3 kinase inhibitor, such as PX-867, can improve the inhibition of coronary artery smooth muscle cell proliferation either as a stand alone treatment or via combination with another restenotic agent, such as sirolimus.

[8] = tested on: human smooth muscle cells; test: Cladribine Example: PDGF-stimulated cell proliferation, cell count on day six; type: cell-based; conditions: from IC50 values
Protocol: To assess the ability of cladribine to prevent cell proliferation, human smooth muscle or endothelial cells (Clonetics, Walkersville, Md.) were seeded at a density of 2000 cells/cm^2 (approximately 3600 cells/well) into each well of 12-well plates and cultured with 1.5 ml of growth medium containing five percent fetal calf serum (FCS). After twenty-four hours, the growth medium was changed and fresh medium containing 10 ng/ml platelet-derived growth factor AB (PDGF AB; LIFE Technologies), as well as various concentrations of cladribine (0.001-10,000 nM) were added with triplicate wells. Medium was replaced with fresh cladribine-containing medium after three days. On day six, cells were detached by trypsinization to yield a cell suspension, lightly centrifuged to pellet and then counted manually using a Neubauer hemocytometer system. Cell viability was assessed by trypan blue exclusion.

[9] = tested on: human coronary artery smooth muscle cells; test: Anti-proliferative activity in non-synchronized cultured cells stimulated with two percent fetal bovine serum; type: cell-based
Text: The multiple curves represent various concentrations of mycophenolic acid ranging from zero to one thousand nanomolar concentrations.
FIG. 58 illustrates, in graphical format, the anti-proliferative activity of cladribine in non-synchronized cultured human coronary artery smooth muscle cells stimulated with two percent fetal bovine serum.
The multiple curves represent various concentrations of cladribine ranging from zero to nine hundred nanomolar concentrations.

[10] = tested on: human coronary artery smooth muscle cell; test: MTS cytotoxicity assay; type: cell-based; conditions: concentrations up to 30,000.00 nanomolar (6.6 to 30,000.00 nanomolar tested)
Text: Typically, a control is utilized to determine baseline toxicity.

[11] = tested on: human coronary artery smooth muscle cell; test: Inhibition of coronary artery smooth muscle cell proliferation by trichostatin A, in vitro cell culture study; type: cell-based
Text: FIG. 51 is a graph of the inhibition of coronary artery smooth muscle cells by trichostatin A in a cell culture study.

[12] = tested on: tumor cell lines; conditions: cited from earlier work

With `CC[C@@]1(O)C(=O)OCc2c1cc1n(c2=O)Cc2cc3c(CN(C)C)c(O)ccc3nc2-1` [Topotecan, topotecan] the cytotoxicity ([1]; concentrations up to one micromolar) was “non-cytotoxic” and the “effect of addition to cells treated with rapamycin” value (from here on “effect of addition to cells treated”) ([2]; topotecan 18.8 to 300 nanomolar) was “increases the percent inhibition of rapamycin alone”.
In the case of `CO[C@H]1C[C@@H]2CC[C@@H](C)[C@@](O)(O2)C(=O)C(=O)N2CCCC[C@H]2C(=O)O[C@H]([C@H](C)C[C@@H]2CC[C@@H](O)[C@H](OC)C2)CC(=O)[C@H](C)/C=C(\C)[C@@H](O)[C@@H](OC)C(=O)[C@H](C)C[C@H](C)/C=C/C=C/C=C/1C` [rapamycin], the “concentration relative to the solubility of sirolimus in water” value ([3]; 4 mg/ml formulation) is reported as “four hundred to about one thousand”, the “drug remaining in the drug coating” value [4] is reported as ~80% and the “in vivo release rate, compared with co-loaded drug” value ([5]; porcine, PVDF basecoat with PVDF topcoat) is reported as “slower release rate than that of mycophenolic acid”.
In the case of `COc1cc([C@@H]2c3cc4c(cc3[C@@H](O[C@@H]3O[C@@H]5CO[C@@H](C)O[C@H]5[C@H](O)[C@H]3O)[C@H]3COC(=O)[C@H]23)OCO4)cc(OC)c1O` [Etoposide, etoposide], the cytotoxicity ([1]; concentrations up to ten micromolar) is reported as “non-cytotoxic” and the “effect of addition to cells treated” value ([2]; etoposide 255.7 to eight-hundred nanomolar) is reported as “increases the percent inhibition of rapamycin alone”.
With `O=C1CCc2cc(OCCCCc3nnnn3C3CCCCC3)ccc2N1` [cilostazol, 6[4-(1-cyclohexyl-1H-tetrazol-5-yl)-butoxy]-3,4-dihydro-2-(1H)-quinolinone] the in vitro release [6] was ~35% and the “drug remaining in the drug coating” value [4] was ~80%.
For `COC[C@H]1OC(=O)/C(=C\N2CCCC2)C2=C(O)C(=O)C3=C([C@H](OC(C)=O)C[C@]4(C)C(=O)CC[C@@H]34)[C@]21C` [PX-867], the “inhibition of coronary artery smooth muscle cell proliferation” value ([7]; PX867 alone, concentration of about 10^−6 (unit not given)) was “one hundred” and the combination with sirolimus ([7]; PX-867 15 to 240 nM with various concentrations of sirolimus) was “strong synergistic effect”.
In the case of `Nc1nc(Cl)nc2c1ncn2[C@H]1C[C@H](O)[C@@H](CO)O1` [Cladribine, 2-chlorodeoxyadenosine], the “potency as inhibitor of smooth muscle cells relative to endothelial cells” value [8] is reported as “approximately twice”, the “effect of addition to cells treated” value ([9]; cladribine 56.25 to 900 nanomolar) is reported as “increases the percent inhibition of rapamycin alone” and the “inhibition of human coronary artery smooth muscle cell proliferation” value ([9]; non-synchronized cells, two percent fetal bovine serum) is reported as “completely inhibits”. For the same molecule, the “in vivo elution from polymeric stent coating, compared with co-loaded drug” value ([5]; Yorkshire pigs, EVA/BMA basecoat, BMA topcoat, Bx Velocity stents) was “elutes more rapidly than rapamycin”.
In the case of `CO[C@H]1C[C@@H]2CC[C@@H](C)[C@@](O)(O2)C(=O)C(=O)N2CCCC[C@H]2C(=O)O[C@H]([C@H](C)C[C@@H]2CC[C@@H](OC(=O)C(C)(CO)CO)[C@H](OC)C2)CC(=O)[C@H](C)/C=C(\C)[C@@H](O)[C@@H](OC)C(=O)[C@H](C)C[C@H](C)/C=C/C=C/C=C/1C` [CCI-779], the “concentration in the final solution (HPLC assay)” value ([3]; ethanol less than two percent, Vitamin E TPGS, water) is reported as 15000 µg/mL.
With `COc1c(C)c2c(c(O)c1C/C=C(\C)CCC(=O)O)C(=O)OC2` [mycophenolic acid] the “effect of addition on the anti-proliferative rapamycin dose response curve” value ([9]; mycophenolic acid zero to one thousand nanomolar, leftward and upward shift) was “potentiates the anti-proliferative activity of rapamycin” and the “in vivo release from basecoat, compared with co-loaded drug” value ([5]; porcine, EVA/BMA basecoat with rapamycin and mycophenolic acid 180 μg each, with or without BMA topcoat) was “elutes more completely over a shorter duration than the rapamycin”.
For `COc1cc2c(cc1O)CC[C@@H]1[C@@H]2CC[C@]2(C)[C@@H](O)CC[C@@H]12` [Panzem®, 2-methoxyestradiol], the “human coronary artery smooth muscle cell survival” value [10] was “do not reduce human coronary artery smooth muscle cell survival”, the “effect of addition to cells treated” value ([2]; Panzem 0.813 to 100 micromolar) was “increases the percent of inhibition of rapamycin alone” and the “inhibition of human coronary artery smooth muscle cell proliferation in vitro” value ([2]; agent alone) was “extremely effective inhibitor”.
For `CC(/C=C/C(=O)NO)=C\[C@@H](C)C(=O)c1ccc(N(C)C)cc1` [trichostatin A], the “inhibition of human coronary artery smooth muscle cell proliferation” value [11] is given as “completely inhibit”, the IC50 ([11]; read-out: anti-proliferative IC50) is given as ~6 nM and the “anti-proliferative IC50's” value [12] is given as “low nM range”.
